The assay deals with growth hormone. In words: Arginine-stimulated growth hormone secretion in Nembutal-anaesthetised rats. In kind it is in vivo. The note with it: albino male rats, 1 mg/kg subcutaneous. The method, then:
The activity of the product of the preceding preparatory example, (D-Nle^4)Somatostatin, was determined by the following procedure:
Albino male rats were administered Nembutal intraperitoneally at a dose of 50 milligrams per kilogram. Fifteen minutes later a subcutaneous injection of the test compound or physiological saline was administered. Ten minutes later 0.5 milliliters of arginine (300 millligrams per milliliter, pH 7.2) is injected into the heart. Five minutes after receipt of the arginine the rats are decapitated and blood is collected into trasylol-EDTA.

SMILES strings stand for the structures. Bridge positions count the residues as written; N and C are the ends. Square brackets hold non-standard residues; d marks the D form. Peptide text beside a SMILES is read from it. dNle = CCCC[C@@H](N)C(=O)O

In the case of `CCCC[C@H]1NC(=O)[C@@H](NC(=O)CNC(=O)[C@H](C)N)CSSC[C@@H](C(=O)O)NC(=O)[C@H](CO)NC(=O)[C@H]([C@@H](C)O)NC(=O)[C@H](Cc2ccccc2)NC(=O)[C@H]([C@@H](C)O)NC(=O)[C@H](CCCCN)NC(=O)[C@H](Cc2c[nH]c3ccccc23)NC(=O)[C@H](Cc2ccccc2)NC(=O)[C@H](Cc2ccccc2)NC(=O)[C@H](CC(N)=O)NC1=O` [(D-Nle^4)Somatostatin, L-Alanyl-glycyl-L-cysteinyl-D-norleucyl-L-asparaginyl-L-phenylalanyl-L-phenylalanyl-L-tryptophyl-L-lysyl-L-threonyl-L-phenylalanyl-L-threonyl-L-seryl- L-cysteine cyclic (1.revreaction.14) disulfide] (H-AGC[dNle]NFFWKTFTSC-OH; disulfide 3-14), the “reducing secretion of growth hormone (in words)” value is on record as “effective agent for reducing secretion of growth hormone”. Under “arginine injected 10 min later, blood 5 min after arginine, control 208±52 ng/ml, p<0.05”, the “growth hormone in blood” value came out at 83 ± 23 ng/mL.
